Here are results for 2 molecules from ChEMBL document CHEMBL4342498, “Design and Discovery of an Orally Efficacious Spiroindolinone-Based Tankyrase Inhibitor for the Treatment of Colon Cancer” (J Med Chem, 2020).

The structures appear in SMILES notation.

Data set [1] can be described thus: Protein binding in human plasma assessed as unbound fraction at 1 uM measured after 24 hrs by LC-MS/MS analysis. The data set is classed as ADME, cell-free.
Data set [2] is described as follows: Stability in human liver microsomes assessed as parent compound remaining at 1 uM measured after 60 mins in presence of NADPH by LC-MS/MS analysis. The data set is classed as ADME, Microsome. The conditions noted are these: read-out: Stability. (In general: Liver microsomes are a subcellular fraction often used to study metabolism.)
A short description of data set [3]: Stability in rat liver microsomes assessed as parent compound remaining at 1 uM measured after 30 mins in presence of NADPH by LC-MS/MS analysis. The conditions noted are these: read-out: Stability. The data set is classed as ADME, Microsome.
For the next data set, the system named is MDR1. Nature of the data set: Efflux ratio of permeability across basolateral to apical side over apical to basolateral side in MDCK2-MDR1 cells. In kind it is ADME, cell-based, Canis lupus familiaris. The conditions noted are these: dog, MDCK-MDR1.
Data set [4] can be described thus: Protein binding in mouse plasma assessed as unbound fraction at 1 uM measured after 24 hrs by LC-MS/MS analysis. The data set is classed as ADME, cell-free.
Data set [5] can be described thus: Half life in ICR mouse at 50 mg/kg, po. In kind it is ADME, organism-based. The conditions noted are these: in vivo.
The target of the next data set is T1, Tankyrase 1/2 (Homo sapiens, UniProt Q9H2K2+O95271).
T1 sequence (Q9H2K2 whole entry): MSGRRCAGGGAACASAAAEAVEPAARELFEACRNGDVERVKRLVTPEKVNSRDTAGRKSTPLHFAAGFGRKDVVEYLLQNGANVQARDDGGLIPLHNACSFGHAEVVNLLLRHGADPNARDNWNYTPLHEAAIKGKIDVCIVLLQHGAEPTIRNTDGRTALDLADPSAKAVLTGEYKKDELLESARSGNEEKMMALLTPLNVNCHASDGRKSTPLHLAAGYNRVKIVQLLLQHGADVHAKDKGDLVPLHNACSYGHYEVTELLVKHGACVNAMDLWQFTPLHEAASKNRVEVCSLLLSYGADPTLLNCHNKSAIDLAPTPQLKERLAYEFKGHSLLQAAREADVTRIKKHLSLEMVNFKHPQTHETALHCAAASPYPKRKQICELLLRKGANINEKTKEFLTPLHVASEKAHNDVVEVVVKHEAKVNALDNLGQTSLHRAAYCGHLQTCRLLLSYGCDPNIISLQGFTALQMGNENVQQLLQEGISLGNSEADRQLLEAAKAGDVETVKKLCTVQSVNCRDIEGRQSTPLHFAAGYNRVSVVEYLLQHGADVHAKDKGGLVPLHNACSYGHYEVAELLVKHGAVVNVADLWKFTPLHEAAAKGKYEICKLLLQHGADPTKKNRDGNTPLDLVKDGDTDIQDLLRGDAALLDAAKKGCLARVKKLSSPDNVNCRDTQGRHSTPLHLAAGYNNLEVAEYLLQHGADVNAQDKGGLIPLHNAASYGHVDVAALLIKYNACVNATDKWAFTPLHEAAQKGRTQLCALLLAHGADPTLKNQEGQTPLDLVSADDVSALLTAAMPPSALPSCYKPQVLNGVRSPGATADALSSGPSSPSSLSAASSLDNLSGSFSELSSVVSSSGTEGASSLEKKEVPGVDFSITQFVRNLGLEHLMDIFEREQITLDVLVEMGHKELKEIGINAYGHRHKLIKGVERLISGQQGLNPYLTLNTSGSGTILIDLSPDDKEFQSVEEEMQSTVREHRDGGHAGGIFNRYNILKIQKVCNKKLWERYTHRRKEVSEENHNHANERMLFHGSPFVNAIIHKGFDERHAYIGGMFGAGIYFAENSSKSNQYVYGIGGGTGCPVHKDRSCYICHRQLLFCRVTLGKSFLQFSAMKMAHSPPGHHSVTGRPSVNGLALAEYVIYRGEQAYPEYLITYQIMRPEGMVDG
T1 sequence (O95271 whole entry): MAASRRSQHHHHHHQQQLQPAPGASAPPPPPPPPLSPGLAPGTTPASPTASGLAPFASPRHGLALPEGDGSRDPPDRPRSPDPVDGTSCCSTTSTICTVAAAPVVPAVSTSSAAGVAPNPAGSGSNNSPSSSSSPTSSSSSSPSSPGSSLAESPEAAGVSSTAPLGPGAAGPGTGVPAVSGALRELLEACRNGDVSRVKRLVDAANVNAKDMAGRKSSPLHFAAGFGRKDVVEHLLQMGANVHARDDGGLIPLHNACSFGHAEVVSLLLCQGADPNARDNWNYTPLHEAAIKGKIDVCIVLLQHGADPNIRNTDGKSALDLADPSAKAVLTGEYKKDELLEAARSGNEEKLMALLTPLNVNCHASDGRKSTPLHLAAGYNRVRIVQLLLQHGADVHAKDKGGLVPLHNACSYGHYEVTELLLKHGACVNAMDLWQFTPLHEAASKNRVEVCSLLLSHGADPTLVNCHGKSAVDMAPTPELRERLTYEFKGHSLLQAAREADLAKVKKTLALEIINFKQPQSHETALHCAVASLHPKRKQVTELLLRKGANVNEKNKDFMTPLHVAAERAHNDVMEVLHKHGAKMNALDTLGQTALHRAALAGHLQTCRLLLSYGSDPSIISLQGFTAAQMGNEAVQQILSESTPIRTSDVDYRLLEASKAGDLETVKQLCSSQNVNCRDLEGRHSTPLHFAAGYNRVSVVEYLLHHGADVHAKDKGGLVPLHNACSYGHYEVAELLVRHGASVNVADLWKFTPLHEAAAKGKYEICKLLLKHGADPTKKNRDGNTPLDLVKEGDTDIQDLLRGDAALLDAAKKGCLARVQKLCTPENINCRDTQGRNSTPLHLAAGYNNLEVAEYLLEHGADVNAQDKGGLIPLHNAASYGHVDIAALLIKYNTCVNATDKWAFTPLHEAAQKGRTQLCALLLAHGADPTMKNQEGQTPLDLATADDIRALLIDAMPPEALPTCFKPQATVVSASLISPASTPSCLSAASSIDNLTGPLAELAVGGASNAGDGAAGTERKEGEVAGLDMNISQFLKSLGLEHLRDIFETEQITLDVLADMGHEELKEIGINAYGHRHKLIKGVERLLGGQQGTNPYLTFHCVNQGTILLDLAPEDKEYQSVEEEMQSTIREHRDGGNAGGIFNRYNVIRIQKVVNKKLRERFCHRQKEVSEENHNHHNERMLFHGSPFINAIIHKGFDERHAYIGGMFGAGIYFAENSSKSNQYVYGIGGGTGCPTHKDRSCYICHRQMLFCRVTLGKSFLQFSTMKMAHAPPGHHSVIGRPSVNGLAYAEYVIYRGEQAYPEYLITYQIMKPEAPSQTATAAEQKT

A short description of data set [6]: Stability in human liver microsomes assessed as parent compound remaining at 1 uM measured after 30 mins in presence of NADPH by LC-MS/MS analysis. The data set is classed as ADME, Microsome. The conditions noted are these: read-out: Stability.
A short description of data set [7]: Stability in rat liver microsomes assessed as parent compound remaining at 1 uM measured after 60 mins in presence of NADPH by LC-MS/MS analysis. The conditions noted are these: read-out: Stability. In kind it is ADME, Microsome.
Data set [8] can be described thus: Efflux ratio of permeability across basolateral to apical side over apical to basolateral side in MDCK2 cells. The conditions noted are these: dog, mdck. In kind it is ADME, cell-based, Canis lupus familiaris, MDCK-II.
Data set [9] can be described thus: Cmax in ICR mouse at 50 mg/kg, po. In kind it is ADME, organism-based. The arrangement: dose 50 mg/kg, route oral. As to conditions: in vivo.
The nature of data set [10]: Permeability of the compound measured after 4 hrs by PAMPA. As to conditions: read-out: permeability. In kind it is ADME. (In general: PAMPA measures passive passage across an artificial lipid membrane.)
A short description of data set [11]: Tmax in ICR mouse at 50 mg/kg, po. The data set is classed as ADME, organism-based. As to conditions: in vivo.

Description for Tankyrase 1/2: Inhibition of TNKS/TNKS2 (unknown origin) expressed in human DLD1 cells assessed as reduction in Wnt-signaling measured after 24 hrs by TCF-luciferase reporter gene assay

In general, fraction unbound refers to free concentration divided by total concentration. For orientation: efflux ratio means a quotient of directional permeabilities that is used to spot active efflux. The term half-life denotes the time needed for the level to fall by half in the phase considered. By IC50 is commonly meant the point on the concentration scale where inhibition reaches its midpoint. Lower therefore signals greater potency in that assay. For orientation: Cmax means the peak of the concentration-time curve. Broadly, the Tmax is the time from dosing to the highest level. As for `CN1CCN(c2cc(F)c3c(c2)N(C)C(=O)C32CCN(c3nc4c(c(=O)[nH]3)CCCN4C)CC2)CC1`, the free fraction (fraction unbound) at 24 h, 1 µM in [1] came to 0.004; in [4] it was 0.019. For the same molecule, the remaining at 1 h, 1 µM in data set [2] was 30.5 to 54.5%; in [7], 65.3%. Further, the figures for the remaining at 0.5 h, 1 µM in data set [3] and in [6] were 80.2% and 72.7%, respectively. Further, the efflux ratio in the data set on MDR1 is 13.2; in data set [8] it was 3.1. For the same molecule, the half-life in [5] was 4 h. Besides, the IC50 at Tankyrase 1/2 turned out to be 8.4 nM. The peak level in data set [9] (Cmax) was 21.2 µM. For the same molecule, the Papp at 4 h in data set [10] turned out to be 12.8 ×10⁻⁶ cm/s. The Tmax in data set [11] was determined as 0.25 h.

For `C[C@@H]1CN(c2cc(F)c3c(c2)N(C)C(=O)C32CCN(c3nc4c(c(=O)[nH]3)CCCN4C)CC2)C[C@H](C)O1`, the fraction unbound at 24 h, 1 µM was 0.003 in data set [1] and 0.006 in data set [4]. The remaining at 1 h, 1 µM is 28.7 to 55.9% in [2] and 44% in data set [7]. Also, the remaining at 0.5 h, 1 µM is 57.3% in [3] and 73% in data set [6]. For the same molecule, the figures for the efflux ratio (in the data set with MDR1; in data set [8]) were 1 and 0.9, respectively. In [5], this molecule had a half-life of 1.8 h. The same molecule yielded an IC50 against Tankyrase 1/2 of 3.1 nM. In data set [9], this molecule returned a Cmax of 121 µM. The Papp at 4 h in data set [10] is 12.4 ×10⁻⁶ cm/s. Moreover, the Tmax in data set [11] was 1 h.
